Test results reported in patent publication US11992478B2, “Methods of using androgen receptor inhibitors as cancer therapeutics” (THE TRUSTEES OF THE UNIVERSITY OF PENNSYLVANIA, priority 2020, dated 2024).

Key:
[1] = system: human melanoma cells (WM46); assay: Cell proliferation of human melanoma cells (WM46); format: cell-based; settings: for proliferation following addition of cations: WM46, over 6-days (FIG. 4D)
[2] = system: human WM46 melanoma; assay: WM46 melanoma tumor growth in SCID mice; format: in vivo; settings: for effect on tumors with engineered ZIP9 loss: either male or female mice
Source text: The tumor-promoting effects of testosterone on early prostate cancer are known, and inhibition of testosterone signaling is a first-line treatment. […] Here it is shown that targeting nonclassical testosterone signaling through ZIP9 is therapeutically useful for cancer (FIG. 13).

[3] = system: ZIP9; settings: competitive binding assays; cited from earlier work
[4] = system: p-ERK (MAPK activation); assay: ERK phosphorylation / MAPK activation (Western blot); format: cell-based, human
[5] = system: mouse melanoma cells (YUMM1.7); assay: Cell proliferation of mouse melanoma cells (YUMM1.7); format: cell-based
[6] = system: melanoma cells; assay: Testosterone-induced hyperproliferation in melanoma cells (FIG. 10A); format: cell-based; settings: 2 μM Bicalutamide (FIG. 10A)
[7] = system: cell lines derived from diverse human and murine tumor types; assay: Testosterone-induced hyperproliferation in a panel of tumor cell lines (FIG. 11); format: cell-based
[8] = system: YAP; assay: YAP nuclear translocation (Western blot of fractions); format: cell-based, human; settings: WM46, testosterone exposure (FIG. 12B)
Source text: (§1) (For clarity, this figure highlights only a subset of proteins from the entire data set of 450 proteins at 4 time points). […] FIG. 12B is a Western blot showing that testosterone promotes YAP nuclear translocation in WM46 cells. […] is used as control for the cytosolic fraction; PARP is used as a control for the nuclear fraction.
When activated, YAP and the related transcription factor TAZ are dephosphorylated and move from the cytosol to the nucleus. […] YAP is a substrate for 14-3-3ε, which sequesters YAP in the cytosol. As 14-3-3ε, was one of the proteins most depleted by testosterone, it is believed, without being bound by theory, that 14-3-3ε loss promotes YAP translocation to the nucleus where it then induces expression of tumor-promoting genes. It is likely that the MAK/ERK changes also contribute to testosterone induced YAP activation, as MEK and ERK1/2 are also major positive YAP regulators.

[9] = system: primary human melanocytes; assay: Cell proliferation of primary human melanocytes; format: cell-based; settings: androgen treatment (FIG. 3A)
[10] = system: human WM46 melanoma cells; assay: Cytosolic zinc influx with Fluo-Zin3 reporter; format: cell-based
[11] = system: WM46 human melanoma cells; assay: Reverse Phase Protein Array of testosterone-treated melanoma cells; format: cell-based; settings: RPPA, testosterone 0, 30, 60 minutes and 8 hours
Source text: as §1
Testosterone induces a rapid, ZIP9 dependent, increase in free cytosolic zinc that is required for the hyperproliferation. Zinc is required for myriad cellular enzymes and associated biologic process making it difficult to hypothesize a priori, what signaling mechanism(s) downstream of ZIP9 mediate the testosterone induced hyperproliferation. A 450 element Reverse Phase Protein Array analysis of human melanoma cells treated with testosterone for 0, 30 minutes, 60 minutes and 8 hours (FIG. 12A) was performed.

[12] = system: murine PDAC; assay: Cell proliferation of murine PDAC cells; format: cell-based, mouse
[13] = system: human PDAC; assay: Cell proliferation of human PDAC cells; format: cell-based; settings: human PDAC (FIG. 9C)
[14] = male SCID mice, 20 mg/kg/day systemic daily (FIG. 13C)

Compound: [Fe] [iron]
- proliferation following addition of cations [1]: Only zinc promoted proliferation

Compound: CNC(=O)c1ccc(N2C(=S)N(c3cnc(C#N)c(C(F)(F)F)c3)C(=O)C23CCC3)cc1F [apalutamide]
- effect on testosterone driven increased proliferation ([1]; WM46 (FIG. 10E)): inhibit testosterone driven increased proliferation
- effect on testosterone dependent-increased proliferation ([1]; WM46, treated with 204 Apalutamide (so in the source)): reverted
- effect on tumors with engineered ZIP9 loss [2]: no significant effect
- melanoma growth ([2]; female mice, systemic delivery): no effect
- survival [2, 14]: extend survival
- tumor growth [2, 14]: inhibits tumor growth

Compound: [Zn+2] [zinc]
- proliferation following addition of cations [1]: promoted proliferation

Compound: C[C@]12CCC(=O)C=C1CC[C@@H]1[C@@H]2CC[C@]2(C)C(=O)CC[C@@H]12 [androstenedione]
- ZIP9 binding specificity / affinity [3]: relatively low affinity

Compound: [Mn+2] [manganese]
- proliferation following addition of cations [1]: Only zinc promoted proliferation

Compound: c1ccc(CN(CCN(Cc2ccccn2)Cc2ccccn2)Cc2ccccn2)nc1 [TPEN, N,N,N′,N′-tetrakis (2-pyridinylmethyl)-1,2-ethanediamine]
- effect on testosterone p-ERK induction ([4]; with testosterone (FIG. 10B)): completely blocked
- effect on proliferation on its own ([1]; WM46, without testosterone (FIG. 4C)): no significant effect
- effect on testosterone induced proliferation ([1]; WM46, zinc chelator plus testosterone, 6 days (FIG. 4C)): completely blocked
- effect on testosterone stimulated proliferation ([5]; YUMM, zinc chelator plus testosterone (FIG. 7B)): blocked

Compound: CC(O)(CS(=O)(=O)c1ccc(F)cc1)C(=O)Nc1ccc(C#N)c(C(F)(F)F)c1 (stereo not shown) [bicalutamide]
- effect on cell proliferation in the absence of testosterone [6]: no effect
- effect on tumors with engineered ZIP9 loss [2]: no significant effect
- tumor growth ([2]; female mice, 30 mg/kg/day via oral gavage (FIG. 13A)): no effect
- cell lines in which testosterone-induced hyperproliferation is blocked ([7]; FIG. 11): 10/12

Compound: C[C@]12CCC(=O)C[C@@H]1CC[C@@H]1[C@@H]2CC[C@]2(C)[C@@H](O)CC[C@@H]12 [dihydrotestosterone]
- ZIP9 binding specificity / affinity [3]: relatively low affinity

Compound: C[C@]12CC[C@H]3[C@@H](CCC4=CC(=O)CC[C@@]43C)[C@@H]1CC[C@@H]2O [testosterone]
- time to YAP movement from cytoplasm to nucleus [8]: 30 to 60 min
- cellular proliferation [9]: markedly increased cellular proliferation
- ERK phosphorylation ([4]; testosterone treatment (FIG. 3B)): increases ERK phosphorylation
- cellular proliferation [1]: markedly increased cellular proliferation
- concentration of maximum proliferative response [1]: 75 nM
- proliferation of isogenic clones lacking ZIP9 [1]: no effect
- duration of sustained elevation in free cytosolic zinc ([10]; WM46, in the presence of the androgen (FIG. 4B)): at least 2 days
- zinc influx ([10]; WM46, over 5 minutes (FIG. 4A)): rapid zinc influx
- effect on zinc in cells lacking ZIP9 ([10]; ΔZIP9 WM46 (FIG. 7C)): no significant effect
- 14-3-3c protein expression [11]: downregulated
- CDKN2A (p16) protein expression [11]: downregulated
- YAP1 protein expression [11]: Upregulated
- phosphorylated ERK (T202; Y204) level [11]: Upregulated
- cellular proliferation ([5]; mouse melanoma cells, androgen treatment (FIG. 3A)): markedly increased cellular proliferation
- proliferation of isogenic clones lacking ZIP9 ([5]; ΔZIP9 YUMM (FIG. 7B)): no effect
- proliferative response to testosterone ([7]; MCF7 cells): did not respond
- proliferative response to testosterone ([7]; U87 cells): did not respond
- response of ΔZIP9 cells in vitro ([12]; mPDAC ΔZIP9 (FIG. 9E)): do not respond
- proliferation ([12]; murine PDAC (FIG. 9C)): promotes proliferation
- proliferation [13]: promotes proliferation
- ZIP9 binding specificity / affinity [3]: highly specific
